Laboratory results: ChEMBL document CHEMBL1201862, “PubChem BioAssay data set” (2004)
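Dose response: 5 concentrations. Exposure: 48 h. Format: 96-well plates. Endpoint: linear interpolation; highest concentration if not reached. Abbreviation: GI50, concentration required for 50% inhibition of growth.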 Active and inactive are the calls of the source. Cut-off read from the data, not from the text of the source: active = GI50 up to about 1.1 µM and inactive = higher.

Experiments:
Experiment in all cases: NCI anticancer screen, dose series, 48 h
786-0 = system: 786-0
A498 = system: A498
A549 = system: A549
CCRF-CEM = system: CCRF-CEM
COLO 205 = system: COLO 205
EKVX = system: EKVX
HL-60 = system: HL-60
MCF7 = system: MCF7
MDA-MB-231 = system: MDA-MB-231
MDA-MB-435 = system: MDA-MB-435
NCI-H226 = system: NCI-H226
NCI-H23 = system: NCI-H23
OVCAR-4 = system: OVCAR-4
SF-268 = system: SF-268
SF-295 = system: SF-295
SK-MEL-2 = system: SK-MEL-2
SK-MEL-5 = system: SK-MEL-5
UACC-62 = system: UACC-62
UO-31 = system: UO-31
MOLT-4 = system: MOLT-4

Structure (SMILES) | GI50 (786-0) | GI50 (A498) | GI50 (A549) | GI50 (CCRF-CEM) | GI50 (COLO 205) | GI50 (EKVX) | GI50 (HL-60) | GI50 (MCF7) | GI50 (MDA-MB-231) | GI50 (MDA-MB-435) | GI50 (NCI-H226) | GI50 (NCI-H23) | GI50 (OVCAR-4) | GI50 (SF-268) | GI50 (SF-295) | GI50 (SK-MEL-2) | GI50 (SK-MEL-5) | GI50 (UACC-62) | GI50 (UO-31) | GI50 (MOLT-4)
CCOC(=O)C(CC(C)C)NC(=O)C(Cc1ccc(N(CCCl)CCCl)cc1)NC(C)=O (stereo not given) | 2.02 µM (inactive) | 15.7 µM (inactive) | 13.4 µM (inactive) | 0.621 µM (active) | 3.7 µM (inactive) | 11.1 µM (inactive) | 0.426 µM (active) | 3.69 µM (inactive) | 5.86 µM (inactive) | 3.41 µM (inactive) | 14.4 µM (inactive) | 4.24 µM (inactive) | 8.89 µM (inactive) | 4.07 µM (inactive) | 7.05 µM (inactive) | 2.45 µM (inactive) | 3.3 µM (inactive) | 1.4 µM (inactive) | 8.02 µM (inactive) | –
COC(=O)Nc1nc2ccc(S(=O)(=O)SC)cc2[nH]1 | 5.09 µM (inactive) | 16.3 µM (inactive) | 8.11 µM (inactive) | 3.52 µM (inactive) | 4.28 µM (inactive) | 8.69 µM (inactive) | 2.38 µM (inactive) | 4.94 µM (inactive) | 11.6 µM (inactive) | 2.69 µM (inactive) | 6.27 µM (inactive) | – | 11.9 µM (inactive) | 16.5 µM (inactive) | 7.8 µM (inactive) | 7.19 µM (inactive) | 5.28 µM (inactive) | 3.9 µM (inactive) | – | 2.89 µM (inactive)
CC1(C)CCCOc2cccc(c2)OCCCC(C)(C)C1=O | 41.5 µM (inactive) | 66.2 µM (inactive) | 31.7 µM (inactive) | 16.5 µM (inactive) | 49.3 µM (inactive) | 37.3 µM (inactive) | 18.1 µM (inactive) | 31 µM (inactive) | 44.1 µM (inactive) | 34 µM (inactive) | 25.5 µM (inactive) | 31.8 µM (inactive) | 27.5 µM (inactive) | 54.8 µM (inactive) | – | 24.9 µM (inactive) | 18.4 µM (inactive) | 19.1 µM (inactive) | 51.4 µM (inactive) | 12.8 µM (inactive)
O=C1CSC(c2ccccc2O)N1c1ccc2c(c1)Oc1c(Cl)c3c(c(Cl)c1=N2)Oc1cc(N2C(=O)CSC2c2ccccc2O)ccc1N=3 (stereo not given) | 40.1 µM (inactive) | > 100 µM (inactive) | – | 18.1 µM (inactive) | – | > 100 µM (inactive) | 0.664 µM (active) | 34 µM (inactive) | 28.9 µM (inactive) | 29.1 µM (inactive) | 73.6 µM (inactive) | 58.3 µM (inactive) | 64.7 µM (inactive) | 32.7 µM (inactive) | 42 µM (inactive) | 47.6 µM (inactive) | > 100 µM (inactive) | – | > 100 µM (inactive) | 2.55 µM (inactive)
COc1ccc(CC2Cc3ccccc3CCN2)cc1OC (stereo not given) | 26.3 µM (inactive) | > 50 µM (inactive) | 29.8 µM (inactive) | 28.5 µM (inactive) | 11.3 µM (inactive) | 26.2 µM (inactive) | 13.2 µM (inactive) | > 50 µM (inactive) | 44.5 µM (inactive) | > 50 µM (inactive) | 12.1 µM (inactive) | > 50 µM (inactive) | > 50 µM (inactive) | > 50 µM (inactive) | > 50 µM (inactive) | > 50 µM (inactive) | – | > 50 µM (inactive) | 11.8 µM (inactive) | 20.3 µM (inactive)
CCN1CCN(c2nc3ccccc3nc2C(=O)c2ccc(OC)c(OC)c2)CC1 | 10.7 µM (inactive) | 27.7 µM (inactive) | 13.6 µM (inactive) | 10 µM (inactive) | 1.5 µM (inactive) | 19 µM (inactive) | 44.1 µM (inactive) | 18.2 µM (inactive) | 14.8 µM (inactive) | 25.4 µM (inactive) | 22.3 µM (inactive) | 24.3 µM (inactive) | 10 µM (inactive) | 19.3 µM (inactive) | 11.9 µM (inactive) | 47.8 µM (inactive) | – | > 100 µM (inactive) | 13.7 µM (inactive) | 5.16 µM (inactive)
COC(=O)C1(C)OC(C)=NC1(C(=O)OC)C(=O)OC (stereo not given) | > 100 µM (inactive) | > 100 µM (inactive) | > 100 µM (inactive) | – | > 100 µM (inactive) | > 100 µM (inactive) | 2.18 µM (inactive) | > 100 µM (inactive) | > 100 µM (inactive) | > 100 µM (inactive) | > 100 µM (inactive) | > 100 µM (inactive) | > 100 µM (inactive) | > 100 µM (inactive) | > 100 µM (inactive) | > 100 µM (inactive) | > 100 µM (inactive) | > 100 µM (inactive) | > 100 µM (inactive) | > 100 µM (inactive)
